Measured values reported in paper PMC9489211, “Regulation of pulmonary surfactant by the adhesion GPCR GPR116/ADGRF5 requires a tethered agonist-mediated activation mechanism” (eLife, 2022).
Where a SMILES comes first, the peptide text is derived from it. Where no end group is shown, it is not given here. [ ]: non-standard residue; d: D form. Nle = CCCC[C@H](N)C(=O)O

How the values were obtained:
hCTFbax G1011K = biological target: T1, hCTFbax G1011K (Homo sapiens, UniProt Q8IZF2, G1009K); assay: Calcium transient assay, hCTFbax G1011K; format: cell-based; conditions: calcium transients, Figure 7C
T1 construct: tethered peptide (993 - 1008); expressed in transfected cells
T1 sequence (Q8IZF2 997-1346 G1009K): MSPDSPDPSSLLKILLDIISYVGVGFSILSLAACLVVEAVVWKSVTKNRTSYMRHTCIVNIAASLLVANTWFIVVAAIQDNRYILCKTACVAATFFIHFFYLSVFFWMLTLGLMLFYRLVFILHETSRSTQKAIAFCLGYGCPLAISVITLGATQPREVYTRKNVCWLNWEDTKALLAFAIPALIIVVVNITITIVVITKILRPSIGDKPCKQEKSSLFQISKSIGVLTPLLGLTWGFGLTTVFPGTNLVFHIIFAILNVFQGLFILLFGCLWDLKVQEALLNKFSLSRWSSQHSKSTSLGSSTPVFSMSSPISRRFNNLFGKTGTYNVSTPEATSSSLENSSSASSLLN
Experimental: The hCTFbax construct was generated independently of the mCTFbax, using a strategy (Nt deletion) based on emerging knowledge and appropriate for the planned studies, although no difference in functionality is expected between the two approaches. The hCTFbax mBS chimera was derived from this construct by gene synthesis. Other mutants of the human GPR116 CTF or full-length constructs were generated by site-directed mutagenesis using PCR-based techniques.
HEK293 cells were seeded in 384-well plates (Greiner, #781946) at 30,000 cells/well. […] Plates were then transferred to a FDSS7000 fluorescence plate reader (HAMAMATSU, Japan) and Ca^2+ responses were measured in real time using a CCD camera with excitation 480 nm/emission 540 nm. Prior to stimulation, baseline measurements were recorded over 5 s (Fmin). […] Fluorescence was read over 1–1.5 min. Maximum fluorescence (Fmax) was determined and normalized to baseline. […]
(§1) Concentration response curves were analyzed using GraphPad Prism 9.2.0. Potency was determined using a nonlinear regression model with variable slope, and statistical significance was determined using a one-way ANOVA followed by Dunnett’s multiple comparison test or a TTEST for comparison of two data sets (*p<0.05, **p<0.01, ***p<0.001, ****p<0.0001, ns, not significant).

[1] = biological target: T2, full-length hGPR116 (HEK293 clone A6) (Homo sapiens, UniProt Q8IZF2); assay: Calcium transient assay, full-length hGPR116 stably expressed in HEK293 (clone A6); format: cell-based; conditions: calcium transients, hFL clone A6, Figure 3-figure supplement 2 / Figure 7A
T2 construct: expressed in transfected cells
T2 sequence (Q8IZF2 22-1346): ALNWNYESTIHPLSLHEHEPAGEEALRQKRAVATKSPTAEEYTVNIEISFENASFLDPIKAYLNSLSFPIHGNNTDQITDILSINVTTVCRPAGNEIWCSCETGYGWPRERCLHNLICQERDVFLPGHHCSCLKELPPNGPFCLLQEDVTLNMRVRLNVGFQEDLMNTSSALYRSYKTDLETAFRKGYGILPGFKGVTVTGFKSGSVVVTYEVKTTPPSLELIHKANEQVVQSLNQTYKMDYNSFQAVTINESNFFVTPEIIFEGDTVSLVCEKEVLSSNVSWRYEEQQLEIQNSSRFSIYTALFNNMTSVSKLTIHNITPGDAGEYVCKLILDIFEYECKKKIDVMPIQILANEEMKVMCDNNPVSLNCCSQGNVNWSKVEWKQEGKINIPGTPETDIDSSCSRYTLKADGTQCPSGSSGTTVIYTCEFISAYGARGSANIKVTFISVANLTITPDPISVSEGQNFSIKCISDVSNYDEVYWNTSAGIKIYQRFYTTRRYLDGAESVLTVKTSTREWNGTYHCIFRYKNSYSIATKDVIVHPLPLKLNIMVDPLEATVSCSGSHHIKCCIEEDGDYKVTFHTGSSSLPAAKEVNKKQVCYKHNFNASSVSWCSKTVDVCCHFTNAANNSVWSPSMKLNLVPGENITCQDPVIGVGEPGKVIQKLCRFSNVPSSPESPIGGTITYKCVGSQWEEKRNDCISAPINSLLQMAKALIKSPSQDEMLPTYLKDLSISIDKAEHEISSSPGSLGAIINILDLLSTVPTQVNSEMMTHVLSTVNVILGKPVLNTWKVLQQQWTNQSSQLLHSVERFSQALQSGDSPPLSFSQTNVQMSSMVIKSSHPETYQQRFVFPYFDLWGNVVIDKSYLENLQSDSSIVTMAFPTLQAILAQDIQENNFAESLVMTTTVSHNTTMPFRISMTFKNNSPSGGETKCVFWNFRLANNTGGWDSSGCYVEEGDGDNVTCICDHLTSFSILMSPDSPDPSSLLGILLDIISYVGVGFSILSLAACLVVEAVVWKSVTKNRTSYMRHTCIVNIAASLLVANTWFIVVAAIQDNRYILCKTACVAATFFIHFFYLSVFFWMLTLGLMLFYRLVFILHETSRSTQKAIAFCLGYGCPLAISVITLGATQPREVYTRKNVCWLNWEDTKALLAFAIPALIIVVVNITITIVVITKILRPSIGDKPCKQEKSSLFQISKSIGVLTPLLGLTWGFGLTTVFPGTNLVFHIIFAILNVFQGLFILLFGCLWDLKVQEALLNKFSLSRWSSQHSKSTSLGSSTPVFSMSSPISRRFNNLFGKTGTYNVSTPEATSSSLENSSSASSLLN
Experimental: (§2) For some constructs, stable populations were generated by treating the cells with G418. After complete selection of resistant cells, these were used in assays. Stable HEK293 clones for full-length hGPR116 (clone A6) and mGPR116 (clone 3C) were described earlier ([Brown et al., 2017]).
(§3) HEK293 cells were seeded in 384-well plates (Greiner, #781946) at 30,000 cells/well. Medium was removed the following day and cells were loaded for 2 hr at 37°C, 5% CO2 with 20 µl Calcium 6 loading buffer (Molecular Devices, Cat# R8191): 1× HBSS (Gibco, Cat# 14065.049) containing 20 mM HEPES (Gibco, Cat#15630) and 2.5 mM probenecid (Sigma, Cat# P8761). Plates were then transferred to a FDSS7000 fluorescence plate reader (HAMAMATSU, Japan) and Ca^2+ responses were measured in real time using a CCD camera with excitation 480 nm/emission 540 nm. Prior to stimulation, baseline measurements were recorded over 5 s (Fmin). For stimulation, 20 µl of test compounds prepared 2× in HBSS containing 20 mM HEPES were dispensed. Fluorescence was read over 1–1.5 min. Maximum fluorescence (Fmax) was determined and normalized to baseline. Data are reported as ∆F/F = (Fmax – Fmin)/Fmin. Adequate response of the endogenous M3R was verified for each transfection, using carbachol at 100 µM and following the same procedure as for the peptide activation.
as §1

[2] = test system: mCTFbax Y1158A, R1160A, W1165A, L1166A, T1240A; assay: Calcium transient assay, alanine scan of ECLs in mCTFbax; format: cell-based, mouse; conditions: transiently transfected HEK293, Figure 4B
Experimental: Human and mouse GPR116 full-length constructs (hFL and mFL, respectively) have been described earlier, as well as the mouse CTF constructs (mCTF) with N-terminal mCherry or FLAG ([Brown et al., 2017]). […] Mutants of these constructs have been generated by site-directed mutagenesis using PCR-based techniques.
as §3

[3] = biological target: T3, full-length mGPR116 (HEK293 clone 3C) (Mus musculus, UniProt G5E8Q8); assay: Calcium transient assay, full-length mGPR116 stably expressed in HEK293 (clone 3C); format: cell-based; conditions: calcium transient assay, HEK293 clone 3C, Fig 3F
T3 construct: expressed in transfected cells
T3 sequence (G5E8Q8 22-1348): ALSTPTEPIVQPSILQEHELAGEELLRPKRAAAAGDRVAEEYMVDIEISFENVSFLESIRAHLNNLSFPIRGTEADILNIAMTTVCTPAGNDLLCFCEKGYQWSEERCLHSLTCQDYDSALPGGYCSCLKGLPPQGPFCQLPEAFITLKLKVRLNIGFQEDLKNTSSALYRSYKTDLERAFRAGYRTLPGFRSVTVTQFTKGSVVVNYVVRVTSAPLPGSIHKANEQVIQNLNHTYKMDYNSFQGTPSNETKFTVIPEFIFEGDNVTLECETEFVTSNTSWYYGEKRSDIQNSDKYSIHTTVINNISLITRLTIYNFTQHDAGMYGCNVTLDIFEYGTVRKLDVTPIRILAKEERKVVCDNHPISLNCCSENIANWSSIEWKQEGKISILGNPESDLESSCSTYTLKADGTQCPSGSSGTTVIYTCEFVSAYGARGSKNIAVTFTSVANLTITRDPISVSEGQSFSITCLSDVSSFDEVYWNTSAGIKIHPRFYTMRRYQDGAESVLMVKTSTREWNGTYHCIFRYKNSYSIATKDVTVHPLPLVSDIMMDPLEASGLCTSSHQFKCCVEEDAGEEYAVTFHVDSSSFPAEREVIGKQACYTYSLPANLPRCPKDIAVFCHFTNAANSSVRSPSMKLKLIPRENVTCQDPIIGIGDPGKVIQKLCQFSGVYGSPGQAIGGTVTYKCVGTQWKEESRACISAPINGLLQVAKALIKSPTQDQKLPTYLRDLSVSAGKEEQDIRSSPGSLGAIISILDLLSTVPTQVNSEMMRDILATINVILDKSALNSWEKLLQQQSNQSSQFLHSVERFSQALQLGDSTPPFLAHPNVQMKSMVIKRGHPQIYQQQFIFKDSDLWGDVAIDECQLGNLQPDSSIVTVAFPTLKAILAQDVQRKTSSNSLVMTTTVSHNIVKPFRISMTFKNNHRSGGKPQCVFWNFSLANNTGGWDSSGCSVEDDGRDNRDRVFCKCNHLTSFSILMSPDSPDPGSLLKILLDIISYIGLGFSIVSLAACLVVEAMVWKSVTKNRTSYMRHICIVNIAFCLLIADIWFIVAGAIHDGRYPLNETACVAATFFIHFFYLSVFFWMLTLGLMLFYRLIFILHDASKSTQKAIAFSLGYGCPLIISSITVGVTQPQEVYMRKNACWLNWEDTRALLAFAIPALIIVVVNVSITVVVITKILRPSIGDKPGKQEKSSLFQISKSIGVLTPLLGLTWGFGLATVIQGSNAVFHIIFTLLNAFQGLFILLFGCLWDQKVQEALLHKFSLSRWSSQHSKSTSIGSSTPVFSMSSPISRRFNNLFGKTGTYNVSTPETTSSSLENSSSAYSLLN
Experimental: as §2, §3, §1

[4] = test system: mouse GPR116 CTF (mCTF) single alanine mutants; assay: IP1 accumulation, mCTF single alanine mutants of the tethered agonist stimulated with exogenous GAP; format: cell-based; conditions: transiently transfected HEK293, Figure 3E
Experimental: HEK293 cells were seeded in 12-well plates at a density of 1.5 × 10^5 cells per well and transiently transfected with plasmids expressing wild-type, wild-type mGPR116-FLAG, CTF-FLAG, or alanine mutants of CTF-FLAG. Then, 24 hr post transfection, media were removed and replaced with serum-free Modified Eagles Medium (MEM; Mediatech) containing 1 µCi/ml of 3H-myo-inositol (PerkinElmer Life Sciences). Also, 48 hr […], media were removed and replaced with serum-free media supplemented with 20 mM LiCl for 3 hr. For samples to be stimulated with GAPs, the peptides were added at the appropriate concentration when the media were replaced with that supplemented with LiCl. […] Columns were washed twice with distilled H2O, total inositol phosphates (IP) were eluted with 4.0 ml of 0.1 M formic acid and 1 M ammonium formate, and eluates containing accumulated inositol phosphates were counted in a liquid scintillation counter. Then, 50 μl of neutralized supernatant was counted in a liquid scintillation counter to measure total incorporated 3H-myo-inositol. Data are expressed as accumulated inositol phosphate over total incorporated 3H-myo-inositol. […]
IP1 accumulation was measured using the manufacturer’s instructions (IP-One, Cisbio 62IPAPEC). […] Plates were read at 665 and 620 nm on an EnVision Xcite Multilabel reader (PerkinElmer, # 2104-0020). […]

Compound | response of hCTFbax G1011K (in words) (hCTFbax G1011K) | activation of the human full-length receptor (in words) [1] | activation of mCTFbax ECL alanine mutants (in words) [2] | EC50 (uM) n=1 ([3]; independent experiment n=1 (mean of quadruplicate)) [µM] | EC50 (uM) n=2 ([3]; independent experiment n=2 (mean of quadruplicate)) [µM] | EC50 (uM) n=3 ([3]; independent experiment n=3 (mean of quadruplicate)) [µM] | activation of mCTF single alanine mutants, IP1 accumulation (in words) [4]
CCCC[C@H](NC(=O)[C@H](CC(C)C)NC(=O)[C@@H](NC(=O)[C@H](CO)NC(=O)[C@H](Cc1ccccc1)NC(=O)[C@H](CO)NC(=O)[C@@H]1CCCN1)[C@@H](C)CC)C(=O)N[C@@H](CO)C(=O)N1CCC[C@H]1C(=O)N[C@@H](CC(=O)O)C(=O)O [GAP10-Pro1] (H-PSFSIL[Nle]SPD-OH; N-terminus and C-terminus assumed) | did not robustly respond | little to no effect | – | – | – | – | –
TSFSILMSPDSPDP [GAP14] | – | – | unresponsive to GAP14-mediated activation | 29.9 | 26.3 | 46.4 | strongly activated the mutant receptors
